{"source": "paper PMC6361926", "about": "“A chemical approach for global protein knockdown from mice to non-human primates” (Cell Discovery, 2019)", "molecular_target": "Bruton's tyrosine kinase (BTK) (Mus musculus, UniProt P35991)", "sequence (P35991 2-659)": "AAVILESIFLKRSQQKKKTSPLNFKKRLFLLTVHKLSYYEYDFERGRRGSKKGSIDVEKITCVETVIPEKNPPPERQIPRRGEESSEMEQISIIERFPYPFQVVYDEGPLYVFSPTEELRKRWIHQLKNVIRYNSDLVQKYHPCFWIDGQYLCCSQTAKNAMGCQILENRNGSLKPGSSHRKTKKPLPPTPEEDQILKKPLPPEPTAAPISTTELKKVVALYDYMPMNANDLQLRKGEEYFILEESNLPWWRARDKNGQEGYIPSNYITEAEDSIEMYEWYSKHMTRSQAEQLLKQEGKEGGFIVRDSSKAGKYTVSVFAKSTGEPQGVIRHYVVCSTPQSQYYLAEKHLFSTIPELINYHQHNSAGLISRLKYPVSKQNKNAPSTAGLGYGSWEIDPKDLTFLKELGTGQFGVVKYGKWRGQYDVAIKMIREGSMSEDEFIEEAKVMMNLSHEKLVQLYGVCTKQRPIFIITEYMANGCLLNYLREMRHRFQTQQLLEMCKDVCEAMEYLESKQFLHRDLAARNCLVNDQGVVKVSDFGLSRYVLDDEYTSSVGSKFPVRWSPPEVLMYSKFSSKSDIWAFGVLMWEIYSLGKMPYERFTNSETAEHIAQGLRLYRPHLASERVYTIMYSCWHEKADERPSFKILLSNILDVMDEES", "assay": "PROTAC degradation of BTK in mouse tissues in vivo, immunoblot", "type": "cell-based"}
{"smiles": "Nc1ncnc2c1c(-c1ccc(Oc3ccccc3)cc1)nn2[C@@H]1CCCN(C(=O)CCCc2cn(CCOCCOCCNc3cccc4c3C(=O)N(C3CCC(=O)NC3=O)C4=O)nn2)C1", "note": "(stereo partly shown) [P13IS]", "values": [{"measurement": "PROTAC degradation of BTK in mouse tissues in vivo, immunoblot", "value": "BTK in adipose, thymus, abdominal lymph node, and axillary lymph node was degraded efficiently"}]}
